US20090156501A1, “IDENTIFICATION OF LIGANDS BY SELECTIVE AMPLIFICATION OF CELLS TRANSFECTED WITH RECEPTORS” (ACADIA PHARMACEUTICALS, INC., priority 1999, published 2009)
Where two headings read alike, the source gives them in different places.

What was measured:
Type in all cases: cell-based
[1] = biological target: T1, 5-HT2A receptor (Homo sapiens, UniProt P28223); assay: R-SAT functional assay of the 5-HT2A receptor in NIH 3T3 cells (agonism and inverse agonism); conditions: for 5-HT2A Receptor Negative Log EC50: Table 6, inverse agonism, 50 ng per well receptor DNA; for Negative Log EC50, inverse agonists at the 5-HT2A receptor: Table 5, inhibition of constitutive activity, mean of three dose response experiments ± standard error
T1 construct: expressed in transfected cells; host or cells: NIH 3T3 (mouse fibroblasts), transient transfection, PSI expression vector
T1 sequence (P28223 whole entry): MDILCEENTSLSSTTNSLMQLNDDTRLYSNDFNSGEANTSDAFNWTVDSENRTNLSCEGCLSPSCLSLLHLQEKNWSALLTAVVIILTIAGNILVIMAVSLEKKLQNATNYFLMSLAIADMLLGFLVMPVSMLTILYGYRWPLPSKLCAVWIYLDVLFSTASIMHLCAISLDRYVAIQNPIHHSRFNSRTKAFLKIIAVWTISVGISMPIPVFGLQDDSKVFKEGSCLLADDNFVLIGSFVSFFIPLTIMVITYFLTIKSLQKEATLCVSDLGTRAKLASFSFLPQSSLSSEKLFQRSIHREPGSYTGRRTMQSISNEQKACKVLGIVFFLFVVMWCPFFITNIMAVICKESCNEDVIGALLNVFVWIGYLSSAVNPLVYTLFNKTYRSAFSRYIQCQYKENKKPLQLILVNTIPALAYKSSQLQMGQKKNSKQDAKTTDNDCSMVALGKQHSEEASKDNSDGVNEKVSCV

[2] = biological target: T2, 5-HT2C receptor (Homo sapiens, UniProt P28335); assay: R-SAT functional assay of the 5-HT2C receptor (inverse agonism); conditions: Table 6, 50 ng per well receptor DNA
T2 construct: expressed in transfected cells; PSI mammalian expression vector
T2 sequence (P28335 33-458): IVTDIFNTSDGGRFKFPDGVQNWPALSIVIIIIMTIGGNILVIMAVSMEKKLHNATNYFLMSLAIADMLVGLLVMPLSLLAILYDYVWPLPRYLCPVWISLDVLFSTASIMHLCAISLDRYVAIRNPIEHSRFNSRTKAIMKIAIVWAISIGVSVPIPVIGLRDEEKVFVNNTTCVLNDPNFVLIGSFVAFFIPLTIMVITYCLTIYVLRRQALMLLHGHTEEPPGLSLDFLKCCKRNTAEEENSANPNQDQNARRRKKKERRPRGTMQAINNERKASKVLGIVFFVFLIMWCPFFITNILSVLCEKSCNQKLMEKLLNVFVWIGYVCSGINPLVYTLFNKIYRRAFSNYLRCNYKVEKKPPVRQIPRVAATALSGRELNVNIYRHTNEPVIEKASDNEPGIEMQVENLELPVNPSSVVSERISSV

[3] = biological target: T3, α2-C2 adrenergic receptor (Homo sapiens, UniProt P18089); assay: Single Receptor Format amplification assay, alpha 2 C2; conditions: for EC50: Table 3, 8-10 concentrations, 3-4 replicates, read-out: Agonist EC50 nM, α2-C2
T3 construct: expressed in transfected cells; host or cells: NIH 3T3
T3 sequence (P18089 1-450): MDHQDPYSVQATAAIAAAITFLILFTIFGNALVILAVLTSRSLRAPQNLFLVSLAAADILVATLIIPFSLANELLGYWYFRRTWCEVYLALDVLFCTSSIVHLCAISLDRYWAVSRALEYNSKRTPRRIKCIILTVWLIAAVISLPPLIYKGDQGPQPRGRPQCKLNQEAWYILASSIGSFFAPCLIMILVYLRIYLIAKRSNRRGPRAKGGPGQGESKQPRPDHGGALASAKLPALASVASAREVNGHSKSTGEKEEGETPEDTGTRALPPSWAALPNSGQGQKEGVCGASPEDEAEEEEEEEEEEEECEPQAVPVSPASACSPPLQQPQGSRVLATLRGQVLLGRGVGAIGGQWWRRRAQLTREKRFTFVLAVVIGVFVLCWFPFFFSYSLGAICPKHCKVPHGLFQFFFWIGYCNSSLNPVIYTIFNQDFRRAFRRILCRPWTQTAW

[4] = biological target: T4, α2-C4 adrenergic receptor (Homo sapiens, UniProt P18825); assay: Single Receptor Format amplification assay, alpha 2 C4; conditions: for EC50: Table 3, 8-10 concentrations, 3-4 replicates, read-out: Agonist EC50 nM, α2-C4; for Max Response, α2-C4: relative to other ligands at the given receptor
T4 construct: expressed in transfected cells; host or cells: NIH 3T3
T4 sequence (P18825 1-462): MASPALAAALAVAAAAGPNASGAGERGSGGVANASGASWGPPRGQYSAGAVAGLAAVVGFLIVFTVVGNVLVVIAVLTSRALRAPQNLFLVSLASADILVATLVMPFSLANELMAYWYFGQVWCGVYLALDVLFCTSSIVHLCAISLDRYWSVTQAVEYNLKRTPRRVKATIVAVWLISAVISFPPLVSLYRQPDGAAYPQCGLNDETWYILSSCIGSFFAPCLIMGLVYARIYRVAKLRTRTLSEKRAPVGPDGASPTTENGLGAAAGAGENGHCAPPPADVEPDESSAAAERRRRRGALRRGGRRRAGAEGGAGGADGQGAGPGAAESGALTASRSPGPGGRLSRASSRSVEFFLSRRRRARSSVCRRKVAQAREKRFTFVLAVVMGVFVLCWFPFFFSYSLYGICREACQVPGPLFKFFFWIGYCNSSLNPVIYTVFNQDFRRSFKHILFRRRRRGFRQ

[5] = biological target: T5, α2-C10 adrenergic receptor (Homo sapiens, UniProt P08913); assay: Single Receptor Format amplification assay, alpha 2 C10; conditions: for EC50: Table 3, 8-10 concentrations, 3-4 replicates, read-out: Agonist EC50 nM, α2-C10; for Max Response, α2-C10: relative to other ligands at the given receptor
T5 construct: expressed in transfected cells; host or cells: NIH 3T3
T5 sequence (P08913 1-465): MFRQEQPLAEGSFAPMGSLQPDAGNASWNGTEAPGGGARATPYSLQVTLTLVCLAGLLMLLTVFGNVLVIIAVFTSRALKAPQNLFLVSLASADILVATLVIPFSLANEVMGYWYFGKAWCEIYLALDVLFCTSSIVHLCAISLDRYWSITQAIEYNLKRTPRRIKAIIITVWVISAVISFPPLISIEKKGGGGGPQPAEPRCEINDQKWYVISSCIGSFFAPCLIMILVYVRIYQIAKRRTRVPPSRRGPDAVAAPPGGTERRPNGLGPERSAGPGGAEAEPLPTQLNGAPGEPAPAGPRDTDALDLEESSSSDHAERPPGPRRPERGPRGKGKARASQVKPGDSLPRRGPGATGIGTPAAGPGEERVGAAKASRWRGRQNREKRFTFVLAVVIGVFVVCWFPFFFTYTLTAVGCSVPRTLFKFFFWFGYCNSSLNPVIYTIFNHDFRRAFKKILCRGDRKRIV

[6] = compounds at 300-500 nM, 50 ng/well receptor DNA, inhibition from basal, referenced to ritanserin (90-100%), mean of duplicates
[7] = relative to other ligands at the given receptor
[8] = compounds at 300-500 nM, 50 ng/well receptor DNA, […], mean of duplicates

Molecule: N[C@@H](Cc1c[nH]c2ccc(O)cc12)C(=O)O [5-hydroxy-Ltryptophan]
- % INHIBITION, screen for inverse agonism at 5-HT2A receptors [1, 6]: 53%

Molecule: CCNC(=O)N1CCN(CCCC(c2ccc(F)cc2)c2ccc(F)cc2)CC1 [Amperozide]
- 5-HT2C Receptor Negative Log EC50 [2]: No Intrinsic

Molecule: C=CCN1CCc2nc(N)sc2CC1 [BHT 920]
- Max Response, α2-C2 [3, 7]: +++
- EC50 [4]: > 10000 nM
- Max Response, α2-C4 [4]: +++
- EC50 [5]: > 10000 nM
- Max Response, α2-C10 [5]: +++

Molecule: CCN1CCc2nc(N)oc2CC1 [BHT 933]
- EC50 [3]: > 10000 nM
- Max Response, α2-C2 [3, 7]: +++
- EC50 [5]: > 10000 nM
- Max Response, α2-C10 [5]: ++

Molecule: O=C(CCCN1CCC(O)(c2ccc(Br)cc2)CC1)c1ccc(F)cc1 [Bromperidol]
- 5-HT2C Receptor Negative Log EC50 [2]: No Intrinsic

Molecule: CN(C)CCCSc1ccccc1NC(=O)/C=C/c1ccccc1 [CINANSERIN]
- % INHIBITION, screen for inverse agonism at 5-HT2A receptors [1, 6]: 75%

Molecule: CCN(CC)CCCN1c2ccccc2Sc2ccc(Cl)cc21 [Chlorproethizene]
- 5-HT2C Receptor Negative Log EC50 [2]: <5.0
- 5-HT2A Receptor Negative Log EC50 [1]: 7.70 ± 0.33

Molecule: OCCN1CCN(CC/C=C2/c3ccccc3Sc3ccc(C(F)(F)F)cc32)CC1 [Cis-Flupentixol]
- 5-HT2C Receptor Negative Log EC50 [2]: No Intrinsic
- Negative Log EC50, inverse agonists at the 5-HT2A receptor [1]: 8.04 ± 0.10 molar
- 5-HT2A Receptor Negative Log EC50 [1]: 8.04 ± 0.10
- % INHIBITION, screen for inverse agonism at 5-HT2A receptors [1, 8]: 45%

Molecule: Clc1cccc(Cl)c1N=C1NCCN1 [Clonidine]
- Max Response, α2-C4 [4]: ++

Molecule: Cc1cccc([C@H](C)c2cnc[nH]2)c1C [Dexmedetomidine]
- Max Response, α2-C2 [3]: 2/+++
- Max Response, α2-C4 [4]: ±
- Max Response, α2-C10 [5]: ±

Molecule: O=C1NCN(c2ccccc2)C12CCN(CCCC(c1ccc(F)cc1)c1ccc(F)cc1)CC2 [Fluspirilene]
- % INHIBITION, screen for inverse agonism at 5-HT2A receptors [1, 6]: 57%

Molecule: N=C(N)NC(=O)Cc1c(Cl)cccc1Cl [Guanfacine]
- Max Response, α2-C4 [4]: ±

Molecule: CC(C)NCC(O)c1ccc(O)c(O)c1 (stereo not shown) [Isoproterenol]
- Max Response, α2-C4 [4]: +

Molecule: O=C(c1ccc(F)cc1)C1CCN(CCn2c(=O)[nH]c3ccccc3c2=O)CC1 [KETANSERIN]
- % INHIBITION, screen for inverse agonism at 5-HT2A receptors [1, 6]: 82%

Molecule: CN1CCN(C2=Nc3ccccc3Oc3ccc(Cl)cc32)CC1 [Loxapine]
- % INHIBITION, screen for inverse agonism at 5-HT2A receptors [1, 6]: 77%

Molecule: CSc1ccc2c(c1)C(N1CCN(C)CC1)Cc1ccccc1S2 (stereo not shown) [METHIOTHEPIN]
- % INHIBITION, screen for inverse agonism at 5-HT2A receptors [1]: 79%

Molecule: NCCC1CCCC(CCN)N1 (stereo not shown) [Mdl 26,630 3HCl]
- % INHIBITION, screen for inverse agonism at 5-HT2A receptors [1, 6]: 75%

Molecule: CC1CCN(CCCC(=O)c2ccc(F)cc2)CC1 [Melperone]
- 5-HT2C Receptor Negative Log EC50 [2]: No Intrinsic

Molecule: CN1CCCCC1CCN1c2ccccc2Sc2ccc([S+](C)[O-])cc21 (stereo not shown) [Mesioridazine]
- 5-HT2C Receptor Negative Log EC50 [2]: No Intrinsic
- 5-HT2A Receptor Negative Log EC50 [1]: 7.00 ± 0.30

Molecule: Cc1ccc(C2(O)CCN(CCCC(=O)c3ccc(F)cc3)CC2)cc1 [Moperone]
- 5-HT2C Receptor Negative Log EC50 [2]: No Intrinsic

Molecule: NC[C@H](O)c1ccc(O)c(O)c1 [Norepinephrine]
- EC50 [3]: 7200 nM
- Max Response, α2-C2 [3, 7]: ++
- EC50 [4]: 2 nM
- Max Response, α2-C4 [4]: +

Molecule: CN1CCN(C2Cc3ccccc3Sc3ccc(Cl)cc32)CC1.O=C(O)/C=C\C(=O)O (stereo not shown) [Octoclothepin]
- 5-HT2A Receptor Negative Log EC50 [1]: 9.74 ± 0.98
- % INHIBITION, screen for inverse agonism at 5-HT2A receptors [1, 8]: 76%

Molecule: Cc1cc(C(C)(C)C)c(O)c(C)c1CC1=NCCN1 [Oxymetazoline]
- Max Response, α2-C4 [4]: +

Molecule: Cc1nc2ccccn2c(=O)c1CCN1CCC(C(=O)c2ccc(F)cc2)CC1 [PIRENPIRONE]
- % INHIBITION, screen for inverse agonism at 5-HT2A receptors [1, 6]: 92%

Molecule: COc1cc2nc(N3CCN(C(=O)c4ccco4)CC3)nc(N)c2cc1OC [Prazocin]
- Max Response, α2-C4 [4]: ++
- Max Response, α2-C10 [5]: ±

Molecule: CN(C)CCCN1c2ccccc2Sc2ccccc21 [Promazine]
- 5-HT2C Receptor Negative Log EC50 [2]: Agonist

Molecule: CN(C)CCCN1c2ccccc2Sc2cccnc21 [Prothypendyl]
- 5-HT2C Receptor Negative Log EC50 [2]: Agonist
- 5-HT2A Receptor Negative Log EC50 [1]: 6.60 ± 0.44

Molecule: C1COC(NC(C2CC2)C2CC2)=N1 [Rilmenidine]
- Max Response, α2-C2 [3, 7]: ±
- EC50 [4]: 480 nM
- Max Response, α2-C4 [4]: +
- Max Response, α2-C10 [5]: ±

Molecule: O=C(CCCN1CCC2(CC1)C(=O)NCN2c1ccccc1)c1ccc(F)cc1 [Spiperone]
- 5-HT2C Receptor Negative Log EC50 [2]: No Intrinsic
- % INHIBITION, screen for inverse agonism at 5-HT2A receptors [1, 6]: 82%

Molecule: CCN1CCCC1CNC(=O)c1cc(S(N)(=O)=O)ccc1OC (stereo not shown) [Sulpiride]
- 5-HT2C Receptor Negative Log EC50 [2]: No Intrinsic

Molecule: CN1CCN(CC/C=C2/c3ccccc3Sc3ccc(S(=O)(=O)N(C)C)cc32)CC1 [Thiothixene]
- 5-HT2C Receptor Negative Log EC50 [2]: No Intrinsic

Molecule: OCCN1CCN(CC/C=C2\c3ccccc3Sc3ccc(C(F)(F)F)cc32)CC1 [Trans-Flupentixol]
- 5-HT2C Receptor Negative Log EC50 [2]: 5.55 ± 0.37
- Negative Log EC50, inverse agonists at the 5-HT2A receptor [1]: 6.77 ± 0.21 molar
- 5-HT2A Receptor Negative Log EC50 [1]: 6.77 ± 0.21

Molecule: O=C(CCCN1CCC(O)(c2cccc(C(F)(F)F)c2)CC1)c1ccc(F)cc1 [Triflouperidol]
- % INHIBITION, screen for inverse agonism at 5-HT2A receptors [1]: 96%

Molecule: Nc1cc(Cl)c(N=C2NCCN2)c(Cl)c1 [p-NH2-Clonidine]
- Max Response, α2-C4 [4]: ±
- Max Response, α2-C10 [5]: ±

Molecule: Cc1nc2sccn2c(=O)c1CCN1CCC(=C(c2ccc(F)cc2)c2ccc(F)cc2)CC1 [ritanserin]
- % INHIBITION, screen for inverse agonism at 5-HT2A receptors [1, 6]: 90%
- intrinsic activity at the 5-HT2A receptor (inverse agonism) ([1]; receptor signaling relative to baseline (no drug)): inverse agonist

Molecule: JL-18
- 5-HT2C Receptor Negative Log EC50 [2]: 6.09 ± 0.45
